Counter-ions that a name gives are not always drawn.
How the values were obtained:
[1] = test system: P. berghei; details: subcutaneous injection, mice; without cure or at doses resulting in more toxic deaths than cures; ref 7a, 7e, 7b, 16; cited from earlier work
[2] = test system: P. yoelii-Kenya; assay: In vivo antimalarial efficacy: P. yoelii murine patent infection; design: species or system P. yoelii in CF-1 mice; details: for weight loss or toxicity: 5 mg/kg/day by gavage
[3] = test system: P. falciparum pansensitive D6; assay: In vitro antimalarial activity: P. falciparum growth inhibition; assay type: cell-based; details: Plasmodium falciparum, D6, 72 h, read-out: IC50 (nM) D6
[4] = test system: P. cynomolgi; details: oral treatment, even at toxic doses; ref 7c; cited from earlier work
[5] = 25 mg/kg/day by gavage, parasite-free for 28 days

Row | Compound | effect on survival [1] | weight loss or toxicity [2] | further results
1 | CCCC[C@H]1CCCCCCc2[nH]c(/C=C3\N=CC(c4ccc[nH]4)=C3OC)cc21 [Compound 77, butylcycloheptylprodiginine] | extend survival | – | –
2 | CCCCCCCCc1cc(Cc2ccc(Cl)cc2)c(/C=C2\N=C(c3ccc[nH]3)C=C2OC)[nH]1 [Compound 60] | – | without any evidence of weight loss or toxicity | cures in treated group [2, 5]: one cure
3 | CCCCCCc1cc(Cc2ccc(Cl)cc2)c(/C=C2\N=C(c3ccc[nH]3)C=C2OC)[nH]1 [Compound 58] | – | without any evidence of weight loss or toxicity | cures in treated group [2, 5]: one cure
4 | COC1=CC(c2ccc[nH]2)=N/C1=C\c1[nH]ccc1Cc1ccc(Cl)cc1 [Compound 41] | – | without any evidence of weight loss or toxicity | –
5 | CCN(CC)CCCC(C)Nc1ccnc2cc(Cl)ccc12 (stereo not shown) [CQ, chloroquine] | – | – | IC50 [3]: 11 nM
6 | CCCCCCCCCCCC1=N/C(=C\c2[nH]c(-c3ccc[nH]3)cc2OC)C=C1 [Compound 2, undecylprodiginine] | extend survival | – | –
7 | COC1=CC(c2ccc[nH]2)=N/C1=C\c1[nH]c(Cc2ccc(Cl)cc2)cc1Cc1ccc(Cl)cc1 [Compound 66] | – | without any evidence of weight loss or toxicity | weight loss or clinical overt toxicity ([2]; 25 mg/kg/day by gavage): without any evident weight loss or clinical overt toxicity
8 | cyclononylprodiginine [Compound 78] | extend survival | – | –
9 | CCCc1cc(Cc2ccc(Cl)cc2)c(/C=C2\N=C(c3ccc[nH]3)C=C2OC)[nH]1 [Compound 57] | – | without any evidence of weight loss or toxicity | –
10 | CCCc1cc(CCC2CCCCC2)c(/C=C2\N=C(c3ccc[nH]3)C=C2OC)[nH]1 [Compound 49] | – | without any evidence of weight loss or toxicity | –
11 | CCCCCCCCc1cc(CCC)c(/C=C2\N=C(c3ccc[nH]3)C=C2OC)[nH]1 [Compound 48, 4′-methoxy-5′-(5-octyl-3-propyl-1H-pyrrol-2-ylmethylene)-1H,5′H-[2,2′]bipyrrolyl, hydrochloride] | – | without any evidence of weight loss or toxicity | –
12 | CCC1CCCCCCCCC2=N/C(=C\c3[nH]c(-c4ccc[nH]4)cc3OC)C1=C2 (stereo not shown) [Compound 3, metacycloprodiginine] | extend survival | – | parasite clearance ([2]; 100 mg/kg/day by gavage): complete; weight loss ([2]; 100 mg/kg/day by gavage): temporary weight loss; mice cured ([2]; 100 mg/kg/day by gavage, parasite-free for 28 days): three of four; parasitemia ([2]; initial proof-of-principle testing, 25 mg/kg/day by gavage, 54.1% in controls): 0.28%
13 | CCCCCCCc1cc(/C=C2\N=C(c3ccc[nH]3)C=C2OC)[nH]c1C [Compound 76, heptylprodigiosin] | extend survival | – | –
14 | CCCCCC1=C/C(=C/c2[nH]c(-c3ccc[nH]3)cc2OC)N=C1C [Compound 1, prodigiosin] | extend survival | – | antimalarial activity [4]: completely ineffective

From paper PMC4494750 (Journal of medicinal chemistry, 2011)
